# Test results: ChEMBL document CHEMBL1697731, “Cheminformatics analysis of assertions mined from literature that describe drug-induced liver injury in different species” (Chem Res Toxicol, 2010)
# Legend:
# Hepatotoxicity [1] = assay: Literature-mined compound from Fourches et al multi-species drug-induced liver injury (DILI) dataset, effect in non-rodents
# Hepatotoxicity [2] = assay: Literature-mined compound from Fourches et al multi-species drug-induced liver injury (DILI) dataset, effect in rodents; settings: rodentia
# Hepatotoxicity [3] = assay: Literature-mined compound from Fourches et al multi-species drug-induced liver injury (DILI) dataset, effect in humans; settings: human
SMILES,Hepatotoxicity (Hepatotoxicity [1]),Hepatotoxicity (Hepatotoxicity [2]),Hepatotoxicity (Hepatotoxicity [3]),Hepatotoxicity (Hepatotoxicity [1]; Liver),Hepatotoxicity (Hepatotoxicity [2]; Liver),Hepatotoxicity (Hepatotoxicity [3]; Liver)
CCC1(c2ccccc2)C(=O)NC(=O)NC1=O [PHENOBARBITAL],drug-induced liver injury reported,drug-induced liver injury reported,drug-induced liver injury reported,–,–,–
O=C1OC(c2ccc(O)cc2)(c2ccc(O)cc2)c2ccccc21 [PHENOLPHTHALEIN],no drug-induced liver injury reported,drug-induced liver injury reported,no drug-induced liver injury reported,–,–,–
Oc1ccccc1 [PHENOL],–,–,–,no drug-induced liver injury reported,drug-induced liver injury reported,drug-induced liver injury reported
CC(COc1ccccc1)N(CCCl)Cc1ccccc1 (centres undefined) [PHENOXYBENZAMINE],no drug-induced liver injury reported,drug-induced liver injury reported,no drug-induced liver injury reported,–,–,–
CCC(c1ccccc1)c1c(O)c2ccccc2oc1=O (centres undefined) [PHENPROCOUMON],no drug-induced liver injury reported,no drug-induced liver injury reported,drug-induced liver injury reported,–,–,–
Cc1ccc(N(CC2=NCCN2)c2cccc(O)c2)cc1 [PHENTOLAMINE],drug-induced liver injury reported,drug-induced liver injury reported,no drug-induced liver injury reported,–,–,–
O=C(O)Cc1ccccc1 [PHENYLACETIC ACID],no drug-induced liver injury reported,drug-induced liver injury reported,no drug-induced liver injury reported,–,–,–
CNC[C@H](O)c1cccc(O)c1 [PHENYLEPHRINE],drug-induced liver injury reported,drug-induced liver injury reported,drug-induced liver injury reported,–,–,–
OC(CNc1ccccn1)c1ccccc1 (centres undefined) [PHENYRAMIDOL],no drug-induced liver injury reported,no drug-induced liver injury reported,drug-induced liver injury reported,–,–,–
O=C1NC(=O)C(c2ccccc2)(c2ccccc2)N1 [PHENYTOIN],–,–,–,drug-induced liver injury reported,drug-induced liver injury reported,drug-induced liver injury reported
CNC(=O)Oc1ccc2c(c1)[C@]1(C)CCN(C)[C@@H]1N2C [PHYSOSTIGMINE],no drug-induced liver injury reported,drug-induced liver injury reported,no drug-induced liver injury reported,–,–,–
CC[C@@H]1C(=O)OC[C@@H]1Cc1cncn1C [PILOCARPINE],no drug-induced liver injury reported,drug-induced liver injury reported,no drug-induced liver injury reported,–,–,–
N=C(N)NN [PIMAGEDINE],no drug-induced liver injury reported,drug-induced liver injury reported,no drug-induced liver injury reported,–,–,–
O=c1[nH]c2ccccc2n1C1CCN(CCCC(c2ccc(F)cc2)c2ccc(F)cc2)CC1 [PIMOZIDE],no drug-induced liver injury reported,no drug-induced liver injury reported,drug-induced liver injury reported,–,–,–
CC(N/C(=N\C#N)Nc1ccncc1)C(C)(C)C (centres undefined) [PINACIDIL ANHYDROUS],no drug-induced liver injury reported,drug-induced liver injury reported,drug-induced liver injury reported,–,–,–
CCn1cc(C(=O)O)c(=O)c2cnc(N3CCNCC3)nc21 [PIPEMIDIC ACID],no drug-induced liver injury reported,no drug-induced liver injury reported,drug-induced liver injury reported,–,–,–
CCN1CCN(C(=O)N[C@@H](C(=O)N[C@@H]2C(=O)N3[C@@H]2SC(C)(C)[C@@H]3C(=O)O)c2ccccc2)C(=O)C1=O [PIPERACILLIN],drug-induced liver injury reported,drug-induced liver injury reported,no drug-induced liver injury reported,–,–,–
C1CNCCN1 [PIPERAZINE],–,–,–,no drug-induced liver injury reported,drug-induced liver injury reported,no drug-induced liver injury reported
CCCCOCCOCCOCc1cc2c(cc1CCC)OCO2 [PIPERONYL BUTOXIDE],–,–,–,no drug-induced liver injury reported,drug-induced liver injury reported,no drug-induced liver injury reported

SMILES,Hepatotoxicity (Hepatotoxicity [1]),Hepatotoxicity (Hepatotoxicity [2]),Hepatotoxicity (Hepatotoxicity [3]),Hepatotoxicity (Hepatotoxicity [1]; Liver),Hepatotoxicity (Hepatotoxicity [2]; Liver),Hepatotoxicity (Hepatotoxicity [3]; Liver)
Cc1ccc(=O)n(-c2ccccc2)c1 [PIRFENIDONE],drug-induced liver injury reported,drug-induced liver injury reported,no drug-induced liver injury reported,–,–,–
COc1ccc(OC)c(Cc2cnc3nc(N)nc(N)c3c2C)c1 [PIRITREXIM],no drug-induced liver injury reported,no drug-induced liver injury reported,drug-induced liver injury reported,–,–,–
CN1C(C(=O)Nc2ccccn2)=C(O)c2ccccc2S1(=O)=O [PIROXICAM],no drug-induced liver injury reported,drug-induced liver injury reported,drug-induced liver injury reported,–,–,–
CC(C(=O)O)c1ccc(N2CC=CC2)c(Cl)c1 (centres undefined) [PIRPROFEN],no drug-induced liver injury reported,drug-induced liver injury reported,drug-induced liver injury reported,–,–,–
O=C(O)C[C@H](O)C[C@H](O)/C=C/c1c(C2CC2)nc2ccccc2c1-c1ccc(F)cc1 [PITAVASTATIN],no drug-induced liver injury reported,drug-induced liver injury reported,drug-induced liver injury reported,–,–,–
CN1CCC(=C2c3ccccc3CCc3sccc32)CC1 [PIZOTYLINE],no drug-induced liver injury reported,no drug-induced liver injury reported,drug-induced liver injury reported,–,–,–
CO[C@H](C(=O)[C@@H](O)[C@@H](C)O)[C@@H]1Cc2cc3cc(O[C@H]4C[C@@H](O[C@H]5C[C@@H](O)[C@H](O)[C@@H](C)O5)[C@H](O)[C@@H](C)O4)c(C)c(O)c3c(O)c2C(=O)[C@H]1O[C@H]1C[C@@H](O[C@H]2C[C@@H](O[C@H]3C[C@](C)(O)[C@H](O)[C@@H](C)O3)[C@@H](O)[C@@H](C)O2)[C@H](O)[C@@H](C)O1 [PLICAMYCIN],no drug-induced liver injury reported,drug-induced liver injury reported,drug-induced liver injury reported,–,–,–
COc1cc([C@@H]2c3cc4c(cc3[C@H](O)[C@H]3COC(=O)[C@H]23)OCO4)cc(OC)c1OC [PODOFILOX],no drug-induced liver injury reported,drug-induced liver injury reported,no drug-induced liver injury reported,–,–,–
C[C@]12CC[C@H](O)CC1=CC[C@@H]1[C@@H]2CC[C@]2(C)C(=O)CC[C@@H]12 [PRASTERONE],no drug-induced liver injury reported,drug-induced liver injury reported,drug-induced liver injury reported,–,–,–
CC[C@H](C)C(=O)O[C@H]1C[C@H](O)C=C2C=C[C@H](C)[C@H](CC[C@@H](O)C[C@@H](O)CC(=O)O)[C@H]21 [PRAVASTATIN],drug-induced liver injury reported,drug-induced liver injury reported,drug-induced liver injury reported,–,–,–
COc1cc2nc(N3CCN(C(=O)c4ccco4)CC3)nc(N)c2cc1OC [PRAZOSIN],no drug-induced liver injury reported,drug-induced liver injury reported,drug-induced liver injury reported,–,–,–
C[C@]12C=CC(=O)C=C1CC[C@@H]1[C@@H]2[C@@H](O)C[C@@]2(C)[C@H]1CC[C@]2(O)C(=O)CO [PREDNISOLONE],no drug-induced liver injury reported,drug-induced liver injury reported,drug-induced liver injury reported,–,–,–
C[C@]12C=CC(=O)C=C1CC[C@@H]1[C@@H]2C(=O)C[C@@]2(C)[C@H]1CC[C@]2(O)C(=O)CO [PREDNISONE],drug-induced liver injury reported,no drug-induced liver injury reported,drug-induced liver injury reported,–,–,–
COc1cc(NC(C)CCCN)c2ncccc2c1 (centres undefined) [PRIMAQUINE],no drug-induced liver injury reported,drug-induced liver injury reported,drug-induced liver injury reported,–,–,–
CCC1(c2ccccc2)C(=O)NCNC1=O [PRIMIDONE],drug-induced liver injury reported,no drug-induced liver injury reported,drug-induced liver injury reported,–,–,–
CCCN(CCC)S(=O)(=O)c1ccc(C(=O)O)cc1 [PROBENECID],no drug-induced liver injury reported,drug-induced liver injury reported,drug-induced liver injury reported,–,–,–
CC(C)(Sc1cc(C(C)(C)C)c(O)c(C(C)(C)C)c1)Sc1cc(C(C)(C)C)c(O)c(C(C)(C)C)c1 [PROBUCOL],drug-induced liver injury reported,drug-induced liver injury reported,drug-induced liver injury reported,–,–,–
CCN(CC)CCNC(=O)c1ccc(N)cc1 [PROCAINAMIDE],no drug-induced liver injury reported,drug-induced liver injury reported,drug-induced liver injury reported,–,–,–
CNNCc1ccc(C(=O)NC(C)C)cc1 [PROCARBAZINE],no drug-induced liver injury reported,drug-induced liver injury reported,no drug-induced liver injury reported,–,–,–
